From US8501450B2, “Hepatitis C virus variants” (priority 2005, dated 2013)
Several values for one entry are separate records, joined by “and”; a condition that tells them apart may be missing. Equal entries are not always repeated.

Tests used:
[1] = target: HCV NS3 protease A156T mutant (UniProt P27958, A1182T, species not given); conditions: enzyme IC50 vs genotype 1a HCV-H reference strain
[2] = target: HCV NS3 protease T54A mutant (UniProt P27958, T1080A, species not given); conditions: enzyme IC50 vs genotype 1a HCV-H reference strain
[3] = system: HCV replicon cells, NS3 R155T variant; conditions: for Fold change of replicon IC50: R155T IC50 divided by wild-type replicon IC50
Text: (§1) The stable wild-type (mADE) and variant HCV sub-genomic replicon cell lines were generated using the T7 RNA runoff transcripts from the corresponding high efficiency Con1 replicon plasmids.
(§2) The stable wild-type and variant HCV sub-genomic replicon cell lines were generated using the 17 RNA runoff transcripts from the corresponding high efficiency Con1 replicon plasmids.

[4] = system: wild-type HCV replicon Con1-mADE cells; assay: microbe, parasite or virus in culture; conditions: Hepatitis C virus, 48 h, read-out: Replicon IC50
Text: as §1, §2

[5] = system: wild-type HCV replicon Con1-mADE cells; conditions: for Fold change of replicon IC50: wild-type replicon relative to itself
Text: as §1, §2

[6] = system: HCV variant mixture in patient plasma; assay: Average phenotype for each patient; assay type: in vivo, patients; conditions: for Average Phenotype: individual subjects
Text: The genotypic analyses performed here allowed a detailed examination of the relative proportion of different resistant mutants within each patient. To better understand the level of phenotypic resistance conferred by these viral mixtures, exploratory analyses were done to obtain an average phenotype for each patient. The percent of virions with a given single or double mutation was multiplied by the average fold change in enzyme IC50 for that given mutant (Table 3), and then all values were added for each patient. […] An analysis correlating pharmacokinetic data with resistance patterns is currently underway.

[7] = system: HCV replicon cells, NS3 R155M variant
Text: as §1, §2

[8] = system: HCV replicon cells, NS3 R155K variant
Text: as §1, §2

[9] = patients that continued to decline, follow-up
[10] = plateau group of patients, Day 14
[11] = rebound group of patients, Day 14
[12] = rebound group of patients, follow-up

COc1ccc2c(O[C@@H]3C[C@H]4C(=O)N[C@]5(C(=O)O)C[C@H]5/C=C\CCCCC[C@H](NC(=O)OC5CCCC5)C(=O)N4C3)cc(-c3csc(NC(C)C)n3)nc2c1 [BILN 2061]
Fold change [1]: >183 fold
Fold change [2]: 2.3 fold

NC(=O)c1ncn([C@@H]2O[C@H](CO)[C@@H](O)[C@H]2O)n1 [Ribavirin, 1-beta-D-ribofuranosyl-1H-1,2,4-triazole-3-carboxamide]
Fold change of replicon IC50 [3]: 0.6 ± 0.3 fold
IC50 [4]: 58 ± 18 µM
Fold change of replicon IC50 [5]: 1.0 ± 0.3 fold

CCC[C@H](NC(=O)[C@@H]1[C@H]2CCC[C@H]2CN1C(=O)[C@@H](NC(=O)[C@@H](NC(=O)c1cnccn1)C1CCCCC1)C(C)(C)C)C(=O)C(=O)NC1CC1 [VX-950]
Average Phenotype ([6]; 450 mg, FU (7-10 days after ETR)): 28.94 and 3.13 and 8.65 and 1.14 and 0.83 and 29.43 and 14.81
Average Phenotype ([6]; 750 mg, ETR (Day 14)): 466.14 and 466.00
Average Phenotype ([6]; 750 mg, FU (7-10 days after ETR)): 9.33 and 45.74 and 126.48 and 9.65 and 3.17 and 4.92 and 0.00
Average Phenotype ([6]; 1250 mg, ETR (Day 14)): 10.15 and 26.13 and 9.38 and 14.39 and 14.59 and 47.49 and 147.96 and 25.96 and 466.00
Average Phenotype ([6]; 1250 mg, FU (7-10 days after ETR)): 9.39 and 26.03 and 10.65 and 12.33 and 15.28 and 15.38 and 7.93 and 1.87 and 30.97
Average phenotype, mean value [6, 9]: 4
Average phenotype, range [6, 9]: 0-10
Average phenotype, mean value [6, 10]: 272
Average phenotype, range [6, 10]: 26-466
Average phenotype, mean value ([6]; plateau group of patients, follow-up): 32
Average phenotype, mean value [6, 11]: 27
Average phenotype, range [6, 11]: 6-70
Average phenotype, mean value [6, 12]: 15
Average phenotype, range [6, 12]: 3-29
IC50 [4]: 0.485 ± 0.108 µM

IFN-α
Fold change of replicon IC50 ([7]; R155M IC50 divided by wild-type replicon IC50): 0.4 ± 0.1 fold
Replicon IC50 ([7]; R155M replicon, 48-h assay, mean ± SD of three experiments): 4.9 ± 1.0 U/ml
Fold change of replicon IC50 ([8]; R155K IC50 divided by wild-type replicon IC50): 1.3 ± 1.1 fold
Replicon IC50 ([8]; R155K replicon, 48-h assay, mean ± SD of three experiments): 15.2 ± 12.3 U/ml
Fold change of replicon IC50 [3]: 0.4 ± 0.3 fold
Replicon IC50 ([3]; R155T replicon, 48-h assay, mean ± SD of three experiments): 4.8 ± 3.3 U/ml
Fold change of replicon IC50 [5]: 1.0 ± 0.1 fold
Replicon IC50 ([5]; wild-type replicon, 48-h assay, mean ± SD of three experiments): 11.6 ± 1.1 U/ml
